In patent US9283222B2 (priority 2006, dated 2016):

Target: Recombinant Human Poly(ADP-Ribose) Polymerase (PARP), PARP-1 (Homo sapiens (Human), UniProt P09874)
Details: read-out: PARP-1 (Ki); Table 1; text calls the values EC50s

Recombinant Human Poly(ADP-Ribose) Polymerase (PARP), PARP-1, sequence (P09874 whole entry): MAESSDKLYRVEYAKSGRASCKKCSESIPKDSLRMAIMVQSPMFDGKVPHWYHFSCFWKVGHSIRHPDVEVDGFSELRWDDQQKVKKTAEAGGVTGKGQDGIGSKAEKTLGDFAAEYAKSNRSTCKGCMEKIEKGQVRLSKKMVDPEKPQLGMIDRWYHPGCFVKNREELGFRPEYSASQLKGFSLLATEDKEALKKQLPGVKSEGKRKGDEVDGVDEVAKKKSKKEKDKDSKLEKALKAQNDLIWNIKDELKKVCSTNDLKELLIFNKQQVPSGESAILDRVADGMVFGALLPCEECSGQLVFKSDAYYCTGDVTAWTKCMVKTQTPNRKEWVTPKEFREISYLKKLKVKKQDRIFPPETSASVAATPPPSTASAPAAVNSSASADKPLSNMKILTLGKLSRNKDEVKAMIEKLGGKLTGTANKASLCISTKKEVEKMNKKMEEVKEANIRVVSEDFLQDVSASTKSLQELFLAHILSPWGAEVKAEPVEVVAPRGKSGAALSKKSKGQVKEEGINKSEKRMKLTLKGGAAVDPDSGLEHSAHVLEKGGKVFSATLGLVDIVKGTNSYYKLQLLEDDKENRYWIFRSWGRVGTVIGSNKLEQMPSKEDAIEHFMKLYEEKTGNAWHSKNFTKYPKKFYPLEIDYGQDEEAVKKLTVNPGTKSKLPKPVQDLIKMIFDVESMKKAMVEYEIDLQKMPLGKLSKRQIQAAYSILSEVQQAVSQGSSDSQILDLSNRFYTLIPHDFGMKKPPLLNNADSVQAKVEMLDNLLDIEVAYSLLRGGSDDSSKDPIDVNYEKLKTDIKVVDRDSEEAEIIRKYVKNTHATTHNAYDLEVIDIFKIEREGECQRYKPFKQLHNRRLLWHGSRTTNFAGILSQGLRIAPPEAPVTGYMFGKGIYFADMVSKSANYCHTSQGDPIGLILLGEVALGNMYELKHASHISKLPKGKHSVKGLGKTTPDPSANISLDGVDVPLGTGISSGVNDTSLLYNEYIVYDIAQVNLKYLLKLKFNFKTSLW

| SMILES | Ki [nM] |
| --- | --- |
| CC(=O)Nc1ccc(C(=O)Nc2cccc(Cc3n[nH]c(=O)c4c3CCCC4)c2)cc1 [Example 234, 4-(acetylamino)-N-(3-((4-oxo-3,4,5,6,7,8-hexahydrophthalazin-1-yl)methyl)phenyl)benzamide] | 57 |
| CCN(CC)C(=O)C1CCCN(C(=O)c2cc(Cc3n[nH]c(=O)c4c3CCCC4)ccc2F)C1 (centres unmarked) [Example 505, N,N-diethyl-1-{2-fluoro-5-[(4-oxo-3,4,5,6,7,8-hexahydrophthalazin-1-yl)methyl]benzoyl}piperidine-3-carboxamide] | 6 |
| O=C(c1cc(Cc2n[nH]c(=O)c3c2CCCC3)ccc1F)N1CCN(c2cccc(C(F)(F)F)c2)CC1 [Example 621, 4-[4-fluoro-3-({4-[3-(trifluoromethyl)phenyl]piperazin-1-yl}carbonyl)benzyl]-5,6,7,8-tetrahydrophthalazin-1(2H)-one] | 8 |
| O=C(c1cc(Cc2n[nH]c(=O)c3c2NCCC3)ccc1F)N1CCN(C(=O)c2cccnc2Cl)CC1 [Example 658, 8-[3-({4-[(2-chloropyridin-3-yl)carbonyl]piperazin-1-yl}carbonyl)-4-fluorobenzyl]-2,3,4,6-tetrahydropyrido[2,3-d]pyridazin-5(1H)-one] | 1 |
| CO[C@H](C(=O)Nc1cccc(Cc2n[nH]c(=O)c3c2CCCC3)c1)c1ccccc1 [Example 152, (2S)-2-methoxy-N-(3-((4-oxo-3,4,5,6,7,8-hexahydrophthalazin-1-yl)methyl)phenyl)-2-phenylacetamide] | 741 |
| CCCN(CCC)[C@@H](C)C(=O)Nc1cccc(Cc2n[nH]c(=O)c3c2CCCC3)c1 [Example 158] | 1590 |
| O=C(c1cccc(Cc2n[nH]c(=O)c3c2CCCC3)c1)N1CCN(C(=O)c2ccno2)CC1 [Example 60, 4-(3-((4-(isoxazol-5-ylcarbonyl)piperazin-1-yl)carbonyl)benzyl)-5,6,7,8-tetrahydrophthalazin-1(2H)-one] | 3 |
| CC1(C)SCNC1C(=O)N1CCN(C(=O)c2cc(Cc3n[nH]c(=O)c4c3NCCC4)ccc2F)CC1 (centres unmarked) [Example 692, 8-[3-({4-[(5,5-dimethyl-1,3-thiazolidin-4-yl)carbonyl]piperazin-1-yl}carbonyl)-4-fluorobenzyl]-2,3,4,6-tetrahydropyrido[2,3-d]pyridazin-5(1H)-one] | 1.6 |
| CN(C(=O)c1cc(Cc2n[nH]c(=O)c3c2NCCC3)ccc1F)C1CCN(C(=O)c2ccccn2)CC1 [Example 721, 2-fluoro-N-methyl-5-[(5-oxo-1,2,3,4,5,6-hexahydropyrido[2,3-d]pyridazin-8-yl)methyl]-N-[1-(pyridin-2-ylcarbonyl)piperidin-4-yl]benzamide] | 3 |
| O=C(c1cc(Cc2n[nH]c(=O)c3c2NCCC3)ccc1F)N1CCN(c2cccc(F)c2)CC1 [Example 547, 8-(4-fluoro-3-{[4-(3-fluorophenyl)piperazin-1-yl]carbonyl}benzyl)-2,3,4,6-tetrahydropyrido[2,3-d]pyridazin-5(1H)-one] | 2.3 |
| CCN(CCNC(=O)c1cccnc1)C(=O)c1cc(Cc2n[nH]c(=O)c3c2CCCC3)ccc1F [Example 763, N-[2-(ethyl{2-fluoro-5-[(4-oxo-3,4,5,6,7,8-hexahydrophthalazin-1-yl)methyl]benzoyl}amino)ethyl]nicotinamide] | 1 |
| O=c1[nH]nc(Cc2cccc(NS(=O)(=O)c3ccccc3)c2)c2c1CCCC2 [Example 116, N-(3-((4-oxo-3,4,5,6,7,8-hexahydrophthalazin-1-yl)methyl)phenyl)benzenesulfonamide] | 578 |
| O=C(COc1ccccc1)N1CCNC(Cc2n[nH]c(=O)c3c2CCCC3)C1 (centres unmarked) [Example 292, 4-((4-(phenoxyacetyl)piperazin-2-yl)methyl)-5,6,7,8-tetrahydrophthalazin-1(2H)-one] | 116 |
| O=C(c1cc(Cc2n[nH]c(=O)c3c2NCCC3)ccc1F)N1CCN(C(=O)N2CCCCC2)CC1 [Example 526, 8-(4-fluoro-3-{[4-(piperidin-1-ylcarbonyl)piperazin-1-yl]carbonyl}benzyl)-2,3,4,6-tetrahydropyrido[2,3-d]pyridazin-5(1H)-one] | 4 |
| O=C(O)CNC(=O)Nc1cc(Cc2n[nH]c(=O)c3c2CCCC3)ccc1F [Example 625, N-[({2-fluoro-5-[(4-oxo-3,4,5,6,7,8-hexahydrophthalazin-1-yl)methyl]phenyl}amino)carbonyl]glycine] | 21 |
| O=C(NC1CCC1)c1cc(Cc2n[nH]c(=O)c3c2NCCC3)ccc1F [Example 471, N-cyclobutyl-2-fluoro-5-((5-oxo-1,2,3,4,5,6-hexahydropyrido(2,3-d)pyridazin-8-yl)methyl)benzamide] | 51 |
| CCOCCN1CCN(C(=O)c2cc(Cc3n[nH]c(=O)c4c3NCCC4)ccc2F)CC1 [Example 485, 8-(3-((4-(2-ethoxyethyl)piperazin-1-yl)carbonyl)-4-fluorobenzyl)-2,3,4,6-tetrahydropyrido(2,3-d)pyridazin-5(1H)-one] | 14 |
| Cc1ccc(NC(=O)c2cccc(Cc3n[nH]c(=O)c4c3CCCC4)c2)cc1F [Example 339, N-(3-fluoro-4-methylphenyl)-3-((4-oxo-3,4,5,6,7,8-hexahydrophthalazin-1-yl)methyl)benzamide] | 120 |
| O=C(Nc1cc(Cc2n[nH]c(=O)c3c2CCCC3)ccc1F)N[C@@H](Cc1ccccc1)C(=O)O [Example 628, N-[({2-fluoro-5-[(4-oxo-3,4,5,6,7,8-hexahydrophthalazin-1-yl)methyl]phenyl}amino)carbonyl]phenylalanine] | 54 |

Now from value to molecule:

| Ki [nM] | SMILES |
| --- | --- |
| 556 | O=C(Nc1cccc(CCc2n[nH]c(=O)c3c2CCCC3)c1)C1CCCN(C(=O)OCc2ccccc2)C1 (centres unmarked) [Example 322, benzyl 3-(((3-(2-(4-oxo-3,4,5,6,7,8-hexahydrophthalazin-1-yl)ethyl)phenyl)amino)carbonyl)piperidine-1-carboxylate] |
| 48 | O=C(NC1CCN(C(=O)[C@@H]2CSCN2)CC1)c1cc(Cc2n[nH]c(=O)c3c2NCCC3)ccc1F [Example 729, 2-fluoro-5-[(5-oxo-1,2,3,4,5,6-hexahydropyrido[2,3-d]pyridazin-8-yl)methyl]-N-{1-[(4R)-1,3-thiazolidin-4-ylcarbonyl]piperidin-4-yl}benzamide] |
| 431 | CC(Cc1n[nH]c(=O)c2c1CCCC2)c1cccc(C(=O)O)c1 (centres unmarked) [Example 288, 3-(1-methyl-2-(4-oxo-3,4,5,6,7,8-hexahydrophthalazin-1-yl)ethyl)benzoic acid] |
| 0.9 | CN(C)C(=O)N1CCN(C(=O)c2cc(Cc3n[nH]c(=O)c4c3CCCC4)ccc2F)CC1 [Example 494, 4-{2-fluoro-5-[(4-oxo-3,4,5,6,7,8-hexahydrophthalazin-1-yl)methyl]benzoyl}-N,N-dimethylpiperazine-1-carboxamide] |
| 2.4 | COc1ccc(C(=O)N2CCN(C(=O)c3cc(Cc4n[nH]c(=O)c5c4CCCC5)ccc3F)CC2)cc1 [Example 622, 4-(4-fluoro-3-{[4-(4-methoxybenzoyl)piperazin-1-yl]carbonyl}benzyl)-5,6,7,8-tetrahydrophthalazin-1(2H)-one] |
| 1.1 | O=C(c1cc(Cc2n[nH]c(=O)c3c2NCCC3)ccc1F)N1CCN(C(=O)C2CCCCC2)CC1 [Example 568, 8-(3-{[4-(cyclohexylcarbonyl)piperazin-1-yl]carbonyl}-4-fluorobenzyl)-2,3,4,6-tetrahydropyrido[2,3-d]pyridazin-5(1H)-one] |
| 1.2 | O=C1CCC(C(=O)N2CCN(C(=O)c3cc(Cc4n[nH]c(=O)c5c4CCCC5)ccc3F)CC2)N1 (centres unmarked) [Example 675, 4-[4-fluoro-3-({4-[(5-oxopyrrolidin-2-yl)carbonyl]piperazin-1-yl}carbonyl)benzyl]-5,6,7,8-tetrahydrophthalazin-1(2H)-one] |
| 31 | O=C(c1cccc(Cc2n[nH]c(=O)c3c2CCCC3)c1)N(CCO)Cc1ccccc1 [Example 424, N-benzyl-N-(2-hydroxyethyl)-3-((4-oxo-3,4,5,6,7,8-hexahydrophthalazin-1-yl)methyl)benzamide] |
| 1.2 | O=C(c1cc(Cc2n[nH]c(=O)c3c2CCCC3)ccc1F)N1CCN(c2ncncn2)CC1 [Example 669, 4-(4-fluoro-3-{[4-(1,3,5-triazin-2-yl)piperazin-1-yl]carbonyl}benzyl)-5,6,7,8-tetrahydrophthalazin-1(2H)-one] |
| 789 | CCc1ccccc1NC(=O)c1cccc(Cc2n[nH]c(=O)c3c2CCCC3)c1 [Example 329, N-(2-ethylphenyl)-3-((4-oxo-3,4,5,6,7,8-hexahydrophthalazin-1-yl)methyl)benzamide] |
| 53 | O=C(NC1CCC(O)CC1)c1cc(Cc2n[nH]c(=O)c3c2NCCC3)ccc1F (centres unmarked) [Example 709, 2-fluoro-N-(4-hydroxycyclohexyl)-5-[(5-oxo-1,2,3,4,5,6-hexahydropyrido[2,3-d]pyridazin-8-yl)methyl]benzamide] |
| 5 | COCCC(=O)Nc1cc(Cc2n[nH]c(=O)c3c2CCCC3)ccc1F [Example 456, N-(2-fluoro-5-((4-oxo-3,4,5,6,7,8-hexahydrophthalazin-1-yl)methyl)phenyl)-3-methoxypropanamide] |
| 2.5 | O=C(CN1CCN(C(=O)c2cc(Cc3n[nH]c(=O)c4c3CCCC4)ccc2F)CC1)N1CCCC1 [Example 537, 4-(4-fluoro-3-{[4-(2-oxo-2-pyrrolidin-1-ylethyl)piperazin-1-yl]carbonyl}benzyl)-5,6,7,8-tetrahydrophthalazin-1(2H)-one] |
| 56 | CCNC(=O)c1cc(Cc2n[nH]c(=O)c3c2CCCC3)ccn1 [Example 75, N-ethyl-4-((4-oxo-3,4,5,6,7,8-hexahydrophthalazin-1-yl)methyl)pyridine-2-carboxamide] |
| 2.2 | CN1CCN(C(=O)c2cc(Cc3n[nH]c(=O)c4c3NCCC4)ccc2F)CC1=O [Example 697, 8-{4-fluoro-3-[(4-methyl-3-oxopiperazin-1-yl)carbonyl]benzyl}-2,3,4,6-tetrahydropyrido[2,3-d]pyridazin-5(1H)-one] |
| 1.8 | O=C(c1ccccc1)C1CCN(C(=O)c2cc(Cc3n[nH]c(=O)c4c3NCCC4)ccc2F)CC1 [Example 609, 8-{3-[(4-benzoylpiperidin-1-yl)carbonyl]-4-fluorobenzyl}-2,3,4,6-tetrahydropyrido[2,3-d]pyridazin-5(1H)-one] |
